In patent publication US20230278972A1, “SUBSTITUTED HALOALKYL SULFONANILIDE HERBICIDES” (FMC Corporation, priority 2020, published 2023):

Experiments:
Type in all cases: in vivo
[1] = test system: Ryegrass, Italian (Italian ryegrass, Lolium multiflorum); assay: Test A preemergence, Ryegrass, Italian; settings: Preemergence; for Ryegrass, Italian plant response rating: 125 g ai/ha, visual injury on 0 to 100 scale (0 no effect, 100 complete control), approximately 10 days; for Plant response rating, Ryegrass, Italian: 0 to 100 scale (0 no effect, 100 complete control)
Summary of the method: (§1)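 After sowing into a sand-amended loam, pots for the preemergence test were treated by spraying directly onto soil. In parallel, seedlings at the one- to two-leaf stage and 2 to 10 cm tall were treated postemergence with the identical surfactant-containing formulation.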

kochia (Bassia scoparia) [2] = assay: Test A postemergence, kochia; settings: Postemergence, 0 to 100 scale (0 no effect, 100 complete control)
Summary of the method: as §1

[3] = test system: blackgrass (Alopecurus myosuroides); assay: Test A postemergence, blackgrass; settings: Postemergence, 0 to 100 scale (0 no effect, 100 complete control)
Summary of the method: as §1

[4] = test system: pigweed (Amaranthus retroflexus); assay: Test A preemergence, pigweed; settings: for Pigweed plant response rating: 125 g ai/ha, visual injury on 0 to 100 scale (0 no effect, 100 complete control), approximately 10 days; for Plant response rating, Pigweed: 0 to 100 scale (0 no effect, 100 complete control)
Summary of the method: (§2)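 Greenhouse pot test in a loam–sand blend; compounds delivered in a non-phytotoxic solvent carrying a surfactant, applied either as a directed spray to soil at seeding or over seedlings 2 to 10 cm high with one to two leaves.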

[5] = test system: barnyardgrass (Echinochloa crus-galli); assay: Test A postemergence, barnyardgrass; settings: Postemergence, 0 to 100 scale (0 no effect, 100 complete control)
Summary of the method: as §2

[6] = test system: pigweed (Amaranthus retroflexus); assay: Test A postemergence, pigweed; settings: Postemergence, 0 to 100 scale (0 no effect, 100 complete control)
Summary of the method: as §1

[7] = test system: wheat (Triticum aestivum); assay: Test A postemergence, wheat; settings: Postemergence, 0 to 100 scale (0 no effect, 100 complete control)
Summary of the method: as §2

[8] = test system: ragweed (common ragweed, Ambrosia artemisiifolia); assay: Test A preemergence, ragweed; settings: Preemergence; for Ragweed plant response rating: 125 g ai/ha, visual injury on 0 to 100 scale (0 no effect, 100 complete control), approximately 10 days; for Plant response rating, Ragweed: 0 to 100 scale (0 no effect, 100 complete control)
Summary of the method: as §1

[9] = test system: galium (catchweed bedstraw, Galium aparine); assay: Test A postemergence, galium; settings: Postemergence, 0 to 100 scale (0 no effect, 100 complete control)
Summary of the method: as §2

[10] = test system: Foxtail, Giant (giant foxtail, Setaria faberi); assay: Test A preemergence, Foxtail, Giant; settings: Preemergence; for Foxtail, Giant plant response rating: 125 g ai/ha, visual injury on 0 to 100 scale (0 no effect, 100 complete control), approximately 10 days; for Plant response rating, Foxtail, Giant: 0 to 100 scale (0 no effect, 100 complete control)
Summary of the method: as §1

kochia (Bassia scoparia) [11] = assay: Test A preemergence, kochia; settings: Preemergence; for Kochia plant response rating: 125 g ai/ha, visual injury on 0 to 100 scale (0 no effect, 100 complete control), approximately 10 days; for Plant response rating, Kochia: 0 to 100 scale (0 no effect, 100 complete control)
Summary of the method: as §1

[12] = test system: Foxtail, Giant (giant foxtail, Setaria faberi); assay: Test A postemergence, Foxtail, Giant; settings: Postemergence, 0 to 100 scale (0 no effect, 100 complete control)
Summary of the method: as §1

corn (Zea mays) = assay: Test A postemergence, corn; settings: Postemergence, 0 to 100 scale (0 no effect, 100 complete control)
Summary of the method: as §1

[13] = test system: Ryegrass, Italian (Italian ryegrass, Lolium multiflorum); assay: Test A postemergence, Ryegrass, Italian; settings: Postemergence, 0 to 100 scale (0 no effect, 100 complete control)
Summary of the method: as §1

[14] = test system: barnyardgrass (Echinochloa crus-galli); assay: Test A preemergence, barnyardgrass; settings: Preemergence; for Barnyardgrass plant response rating: 125 g ai/ha, visual injury on 0 to 100 scale (0 no effect, 100 complete control), approximately 10 days; for Plant response rating, Barnyardgrass: 0 to 100 scale (0 no effect, 100 complete control)
Summary of the method: as §1

[15] = test system: ragweed (common ragweed, Ambrosia artemisiifolia); assay: Test A postemergence, ragweed; settings: Postemergence, 0 to 100 scale (0 no effect, 100 complete control)
Summary of the method: as §1

[16] = 125 g ai/ha, visual injury approx. 10 days
[17] = 500 g ai/ha, visual injury vs untreated controls after approx. 10 days
[18] = 31 g ai/ha, visual injury, approx. 10 days

SMILES | Ryegrass, Italian plant response rating [1] | Plant response rating, Kochia (kochia (Bassia scoparia) [2]; [16]) | Plant response rating, Blackgrass [3, 16] | Pigweed plant response rating [4] | Plant response rating, Barnyardgrass [5, 16] | Plant response rating, Pigweed [6, 16] | Plant response rating, Wheat [7, 16] | Ragweed plant response rating [8] | Plant response rating, Galium [9, 16] | Foxtail, Giant plant response rating [10] | Kochia plant response rating (kochia (Bassia scoparia) [11]) | Plant response rating, Foxtail, Giant [12, 16] | Plant response rating, Corn (corn (Zea mays); [16]) | Plant response rating, Ryegrass, Italian [13, 16] | Barnyardgrass plant response rating [14] | Plant response rating, Ragweed [15, 16] | also measured
Cc1ccc(=O)n(-c2cc(NS(=O)(=O)C(F)(F)F)c(C)cc2C)n1 [Compound 85] | 0 | 0 | 0 | 100 | 30 | 20 | 0 | 0 | 60 | 10 | 60 | 0 | 0 | 40 | 70 | 20 | Plant response rating, Ryegrass, Italian ([1]; 500 g ai/ha): 30; Kochia plant response rating (kochia (Bassia scoparia) [2]; [17]): 0; Blackgrass plant response rating [3, 17]: 0; Plant response rating, Pigweed ([4]; 500 g ai/ha): 100; Barnyardgrass plant response rating [5, 17]: 20; Pigweed plant response rating [6, 17]: 40; Wheat plant response rating [7, 17]: 0; Plant response rating, Ragweed ([8]; 500 g ai/ha): 0; Galium plant response rating [9, 17]: 0; Plant response rating, Foxtail, Giant ([10]; 500 g ai/ha): 90; Plant response rating, Kochia (kochia (Bassia scoparia) [11]; 500 g ai/ha): 70; Foxtail, Giant plant response rating [12, 17]: 0; Corn plant response rating (corn (Zea mays); [17]): 0; Ryegrass, Italian plant response rating [13, 17]: 30; Plant response rating, Barnyardgrass ([14]; 500 g ai/ha): 70; Ragweed plant response rating [15, 17]: 30
COC1CCCN(C(=O)c2cc(N(C(=O)C(C)C)S(=O)(=O)C(F)(F)F)c(C)cc2C)C1 (stereo not shown) [Compound 91] | 50 | 10 | 0 | 100 | 0 | 40 | 60 | 20 | 70 | 100 | 60 | 10 | 0 | 10 | 90 | 40 | Plant response rating, Ryegrass, Italian [1, 18]: 30; Plant response rating, Kochia (kochia (Bassia scoparia) [2]; 31 g ai/ha): 10; Plant response rating, Blackgrass ([3]; 31 g ai/ha): 0; Plant response rating, Pigweed [4, 18]: 60; Plant response rating, Barnyardgrass ([5]; 31 g ai/ha): 0; Plant response rating, Pigweed ([6]; 31 g ai/ha): 0; Plant response rating, Wheat ([7]; 31 g ai/ha): 10; Plant response rating, Ragweed [8, 18]: 0; Plant response rating, Galium ([9]; 31 g ai/ha): 70; Plant response rating, Foxtail, Giant [10, 18]: 20; Plant response rating, Kochia (kochia (Bassia scoparia) [11]; [18]): 0; Plant response rating, Foxtail, Giant ([12]; 31 g ai/ha): 0; Plant response rating, Corn (corn (Zea mays); 31 g ai/ha): 0; Plant response rating, Ryegrass, Italian ([13]; 31 g ai/ha): 0; Plant response rating, Barnyardgrass [14, 18]: 0; Plant response rating, Ragweed ([15]; 31 g ai/ha): 0
